The text below walks through data of US20230098332A1, “HETEROCYCLIC DERIVATIVES AS TRMP8 ANTAGONISTS” (Givaudan SA, priority 2020, published 2023).

In the assay the target is T1, hTRPM8 (Homo sapiens, UniProt Q7Z2W7).
T1 construct: expressed in transfected cells
The assay can be described thus: Assay on TRPM8 modulators: calcium imaging (Fluo-4, Flexstation) in HEK293 cell line stably expressing hTRPM8. It is filed as cell-based. The settings on record: TRPM8 agonist activity, calcium influx, HEK293 stably expressing hTRPM8, sigmoidal dose-response fit. The method, then: A HEK293 cell line stably expressing hTRPM8 was generated according to Klein et al., (Chem. Senses 36: 649-658, 2011) and receptor activation was monitored by calcium imaging in a Flexstation. For Ca-imaging assays of TRPM8 channel activation, cells were seeded on day 0 at a density of 12000 cells per well in Dulbecco's modified Eagle medium (DMEM) containing 9% foetal bovine serum in black, clear bottom 96-well plates that had been coated with 0.001% polyethyleneimine (molecular weight=60 000, Acros Organics). On day 2, agonists were evaluated via calcium imaging using Fluo-4. Briefly, growth medium was discarded, and the cells were incubated in the dark for 1 h at 37° C. in 50 μL loading buffer consisting of 2.7 μM Fluo-4 AM (Invitrogen) and […] probenecid (Sigma-Aldrich) in DMEM (without serum). After incubation, the plates were washed five times with 100 μL of assay buffer (in mM: 130 NaCl, 5 KCl, 10 HEPES, 2 CaCl2, and 10 glucose, pH7.4.) and further incubated in the dark at room temperature for 30 min. The cells were then washed five times with 100 μL assay buffer and then calcium influx to serial dilutions of inventive compounds were measured in a Flexstation 3 (Molecular Devices). Receptor activation was initiated following addition of 20 μl of a 10-fold concentrated ligand stock solution, which is also prepared in assay buffer. Fluorescence was continuously monitored for 15 seconds prior to ligand addition and for 105 seconds after ligand addition, for a total of 120 seconds. Maximal receptor activation in relation to solvent control and relative to 31.6 μM menthol is determined. Data from serial dilutions were processed with a KNIME workflow to fit a sigmoidal dose-response curve and to extrapolate EC50 values.

SMILES strings stand for the structures. Where a name gives a salt, the structure may show the parent alone. Some results are limits rather than exact numbers.

T1 sequence (Q7Z2W7 whole entry): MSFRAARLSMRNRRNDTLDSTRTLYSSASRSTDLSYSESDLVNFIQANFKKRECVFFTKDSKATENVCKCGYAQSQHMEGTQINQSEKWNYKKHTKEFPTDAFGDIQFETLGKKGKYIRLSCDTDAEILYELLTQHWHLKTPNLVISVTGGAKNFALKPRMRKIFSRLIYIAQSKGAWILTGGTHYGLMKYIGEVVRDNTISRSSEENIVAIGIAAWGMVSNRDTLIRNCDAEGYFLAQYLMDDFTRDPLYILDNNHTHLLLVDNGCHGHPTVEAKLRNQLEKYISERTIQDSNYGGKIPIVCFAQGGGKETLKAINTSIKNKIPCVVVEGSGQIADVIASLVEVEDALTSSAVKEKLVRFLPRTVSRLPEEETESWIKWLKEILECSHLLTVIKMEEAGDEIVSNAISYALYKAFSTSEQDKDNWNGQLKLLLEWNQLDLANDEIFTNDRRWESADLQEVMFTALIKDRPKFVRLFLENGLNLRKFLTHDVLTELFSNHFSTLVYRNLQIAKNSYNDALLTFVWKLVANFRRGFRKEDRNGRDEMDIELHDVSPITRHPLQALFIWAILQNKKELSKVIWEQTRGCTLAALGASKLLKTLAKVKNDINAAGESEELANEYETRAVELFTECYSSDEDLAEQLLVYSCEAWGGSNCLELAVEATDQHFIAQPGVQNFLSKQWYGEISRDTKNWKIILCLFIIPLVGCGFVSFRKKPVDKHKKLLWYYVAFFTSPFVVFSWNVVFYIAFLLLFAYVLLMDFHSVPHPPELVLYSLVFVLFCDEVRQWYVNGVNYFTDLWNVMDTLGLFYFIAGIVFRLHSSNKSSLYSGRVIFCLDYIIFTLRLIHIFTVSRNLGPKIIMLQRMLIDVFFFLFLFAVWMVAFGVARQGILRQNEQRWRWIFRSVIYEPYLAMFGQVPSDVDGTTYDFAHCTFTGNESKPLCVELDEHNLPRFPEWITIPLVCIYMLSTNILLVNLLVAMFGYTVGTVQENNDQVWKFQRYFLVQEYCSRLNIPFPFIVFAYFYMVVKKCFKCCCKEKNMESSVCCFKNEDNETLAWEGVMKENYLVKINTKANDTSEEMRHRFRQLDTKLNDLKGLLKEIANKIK

On to `Cc1ccc(OCCN2CCN(C)CC2)c(C(C)c2ccccc2)c1` (centres unmarked) [compound 101, 1-methyl-4-(2-(4-methyl-2-(1-phenylethyl)phenoxy)ethyl)piperazine], for which the EC50 – broadly, the concentration needed to bring the measured effect to its halfway point – was in the range of 0.3 to 1 µM.

As to `Cc1cc(C)c(OC(C)CN2CCOCC2)c(Cc2ccccc2C#N)c1` (centres unmarked) [compound 49, 2-(3,5-dimethyl-2-((1-morpholinopropan-2-yl)oxy)benzyl)benzonitrile], the EC50 lay within 0.05 to 0.3 µM. `Cc1ccc(OCCN2CCN(C)CC2)c(C(=O)c2ccccc2)c1` [compound 42, (5-methyl-2-(2-(4-methylpiperazin-1-yl)ethoxy)phenyl)(phenyl)methanone]: the EC50 lay in the range of 1 to 35 µM. For `Cc1cc(C)c(OCCN2CCOCC2)c(Cc2ccccc2Cl)c1` [compound 152, 4-(2-(2-(2-chlorobenzyl)-4,6-dimethylphenoxy)ethyl)morpholine] the value was 0.05 to 0.3 µM; for `CCc1cc(C)cc(Cc2ccccc2F)c1OCCN1CCOCC1` [compound 161, 4-(2-(2-ethyl-6-(2-fluorobenzyl)-4-methylphenoxy)ethyl)morpholine], 0.05 to 0.3 µM; for `Cc1cc(C)c(OCCN2CCOCC2)c(Cc2cc(F)cc(F)c2)c1` [compound 154, 4-(2-(2-(3,5-difluorobenzyl)-4,6-dimethylphenoxy)ethyl)morpholine], 0.3 to 1 µM.

As to `CN1CCN(CC2CCc3cccc(Cc4ccccc4)c3O2)CC1` (centres unmarked) [compound 50, 1-((8-benzylchroman-2-yl)methyl)-4-methylpiperazine], the EC50 lay within 1 to 35 µM. As to `C=C(c1ccccc1F)c1cc(C)cc(C)c1OCCN1CCOCC1` [compound 145, 4-(2-(2-(1-(2-fluorophenyl)vinyl)-4,6-dimethylphenoxy)ethyl)morpholine], the EC50 fell in the range of 0.3 to 1 µM. For `Cc1ccc(CC(O)CN2CCOCC2)c(Oc2ccccc2C#N)c1` (centres unmarked) [compound 107, 2-(2-(2-hydroxy-3-morpholinopropyl)-5-methylphenoxy)benzonitrile] the value was 0.05 to 0.3 µM; for `Cc1cc(C)c(OCCN2CCN(C)CC2)c(Cc2cccnc2)c1` [compound 64, 1-(2-(2,4-dimethyl-6-(pyridin-3-ylmethyl)phenoxy)ethyl)-4-methylpiperazine], 1 to 35 µM; for `Cc1cc(C)c(OCCN2CCOCC2)c(Cc2cc(F)ccc2F)c1` [compound 147, 4-(2-(2-(2,5-difluorobenzyl)-4,6-dimethylphenoxy)ethyl)morpholine], 0.05 to 0.3 µM. In the case of `Cc1ccc(OCCN2CCN(C)CC2)c(Cc2cccc(Cl)c2)c1` [compound 59, 1-(2-(2-(3-chlorobenzyl)-4-methylphenoxy)ethyl)-4-methylpiperazine] it was 1 to 35 µM. In the case of `COc1cc(C(C)(C)C)cc(Cc2ccccc2)c1OCCN1CCN(C)CC1` [compound 69, 1-(2-(2-benzyl-4-(tert-butyl)-6-methoxyphenoxy)ethyl)-4-methylpiperazine] it was 1 to 35 µM.

With `Cc1cc(C)c(OCCN2CCN(C)CC2)c(Cc2ccccc2)c1` [compound 70, 1-(2-(2-benzyl-4,6-dimethylphenoxy)ethyl)-4-methylpiperazine], the EC50 lay in the range of 0.3 to 1 µM.

In the case of `Cc1ccc(OCCN2CCN(C)CC2)c(Cc2ccccc2C#N)c1` [compound 129, 2-(5-methyl-2-(2-(4-methylpiperazin-1-yl)ethoxy)benzyl)benzonitrile], the EC50 fell in the range of 0.05 to 0.3 µM.

In the case of `CC1CCC(OCCN2CCN(C)CC2)C(Cc2ccccc2)C1` (centres unmarked) [compound 52, 1-(2-((2-benzyl-4-methylcyclohexyl)oxy)ethyl)-4-methylpiperazine dihydrochloride], the EC50 was in the range of 1 to 35 µM. On to `Cc1cc(C)c(OCCN2CCN(C)CC2)cc1Cc1ccccc1C#N` [compound 109, 2-(2,4-dimethyl-5-(2-(4-methylpiperazin-1-yl)ethoxy)benzyl)benzonitrile], for which the EC50 lay in the range of 1 to 35 µM. `Cc1cc(C)c(N(C)CCN2CCOCC2)c(Cc2ccccc2F)c1` [compound 113, 2-(2-fluorobenzyl)-N,4,6-trimethyl-N-(2-morpholinoethyl)aniline]: the EC50 is 0.3 to 1 µM. For `CN1CCN(CCOc2ccc(Cl)cc2Cc2ccccc2)CC1` [compound 73, 1-(2-(2-benzyl-4-chlorophenoxy)ethyl)-4-methylpiperazine hydrochloride] the value was 0.3 to 1 µM; for `Cc1cc(C)c(CCCN2CCOCC2)c(Oc2ccccc2F)c1` [compound 162, 4-(3-(2-(2-fluorophenoxy)-4,6-dimethylphenyl)propyl)morpholine], below 0.05 µM. For `Cc1ccc(OCCN2CCOCC2)c(Cc2c(F)cccc2F)c1` [compound 151, 4-(2-(2-(2,6-difluorobenzyl)-4-methylphenoxy)ethyl)morpholine], the EC50 was 0.05 to 0.3 µM.

On to `Cc1cc(C)c(OCCN2CCOCC2)c(Cc2ccc(F)cc2F)c1` [compound 146, 4-(2-(2-(2,4-difluorobenzyl)-4,6-dimethylphenoxy)ethyl)morpholine], for which the EC50 was 0.3 to 1 µM.

Turning to `Cc1cc(C)c(OCCN2CCOCC2)c(Cc2c(Cl)cccc2Cl)c1` [compound 148, 4-(2-(2-(2,6-dichlorobenzyl)-4,6-dimethylphenoxy)ethyl)morpholine], the EC50 lay in the range of 0.3 to 1 µM.

As for `CC1=C(OCCN2CCN(C)CC2)/C(=C/c2ccccc2)CC(C)C1` (centres unmarked) [compound 43, (E)-1-(2-((6-benzylidene-2,4-dimethylcyclohex-1-en-1-yl)oxy)ethyl)-4-methylpiperazine], the EC50 is 1 to 35 µM.

Turning to `C=C(c1ccccc1)c1cc(C)ccc1OCCN1CCN(C)CC1` [compound 102, 1-methyl-4-(2-(4-methyl-2-(1-phenylvinyl)phenoxy)ethyl)piperazine], the EC50 was 0.3 to 1 µM. In the case of `Cc1cc(C)c(OCCN2CCN(C)CC2)c(Cc2ccccc2F)c1` [compound 56, 1-(2-(2-(2-fluorobenzyl)-4,6-dimethylphenoxy)ethyl)-4-methylpiperazine], the EC50 was in the range of 0.05 to 0.3 µM.

With `CCN1CCN(CCOc2ccc(Cl)cc2Cc2ccccc2)CC1` [compound 72, 1-(2-(2-benzyl-4-chlorophenoxy)ethyl)-4-ethylpiperazine hydrochloride], the EC50 lay in the range of 1 to 35 µM. As for `Cc1ccc(O)c(Cc2cc(C)ccc2OCCN2CCN(C)CC2)c1` [compound 163, 4-methyl-2-(5-methyl-2-(2-(4-methylpiperazin-1-yl)ethoxy)benzyl)phenol], the EC50 fell in the range of 1 to 35 µM.

On to `Cc1cc(C)c(OCCCN2CCOCC2)c(Cc2ccccc2C#N)c1` [compound 124, 2-(3,5-dimethyl-2-(3-morpholinopropoxy)benzyl)benzonitrile], for which the EC50 fell in the range of 0.05 to 0.3 µM. Consider `Cc1ccc(CCN2CCN(C)CC2)c(Cc2ccccc2)c1` [compound 96, 1-(2-benzyl-4-methylphenethyl)-4-methylpiperazine], for which the EC50 lay within 1 to 35 µM.

Consider `CC(C)c1ccc(OCCN2CCN(C)CC2)c(Cc2ccccc2)c1` [compound 75, 1-(2-(2-benzyl-4-isopropylphenoxy)ethyl)-4-methylpiperazine], for which the EC50 was 1 to 35 µM.

With `Cc1cc(C)c(OCC(C)N2CCOCC2)c(Cc2ccccc2C#N)c1` (centres unmarked) [compound 48, 2-(3,5-dimethyl-2-(2-morpholinopropoxy)benzyl)benzonitrile], the EC50 lay in the range of 0.05 to 0.3 µM. As for `Cc1cc(C)c(N(C)CCN2CCOCC2)c(Cc2c(F)cccc2F)c1` [compound 111, 2-(2,6-difluorobenzyl)-N,4,6-trimethyl-N-(2-morpholinoethyl)aniline], the EC50 lay within 0.3 to 1 µM. With `Cc1ccc(OCCN2CCOCC2)c(CC2CCCCC2=O)c1` (centres unmarked) [compound 131, 2-(5-methyl-2-(2-morpholinoethoxy)benzyl)cyclohexan-1-one], the EC50 was in the range of 1 to 35 µM. In the case of `Cc1cc(C)c(OCCN2CCOCC2)c(Cc2c(F)cccc2C#N)c1` [compound 120, 2-(3,5-dimethyl-2-(2-morpholinoethoxy)benzyl)-3-fluorobenzonitrile] it was 0.05 to 0.3 µM; in that of `CCc1ccc(OCCN2CCN(C)CC2)c(Cc2ccccc2)c1` [compound 74, 1-(2-(2-benzyl-4-ethylphenoxy)ethyl)-4-methylpiperazine hydrochloride], 0.3 to 1 µM; in that of `Cc1ccc(Oc2ccccc2C#N)c(CCCN2CCN(C)CC2)c1` [compound 127, 2-(4-methyl-2-(3-(4-methylpiperazin-1-yl)propyl)phenoxy)benzonitrile], 1 to 35 µM. Take `Cc1cc(C)c(OCCN2CCN(C)CC2)c(Cc2ccccc2C#N)c1` [compound 117, 2-(3,5-dimethyl-2-(2-(4-methylpiperazin-1-yl)ethoxy)benzyl)benzonitrile]: the EC50 lay within 0.05 to 0.3 µM. For `Cc1cc(C)c(OC(C)CN2CCN(C)CC2)c(Cc2ccccc2C#N)c1` (centres unmarked) [compound 115, 2-(3,5-dimethyl-2-((1-(4-methylpiperazin-1-yl)propan-2-yl)oxy)benzyl)benzonitrile] the value was 0.05 to 0.3 µM; for `Cc1ccc(OCCN2CCN(C)CC2)c(CC(C)C)c1` [compound 94, 1-(2-(2-isobutyl-4-methylphenoxy)ethyl)-4-methylpiperazine], 1 to 35 µM.

As for `Cc1ccc(/C=C/CN2CCN(C)CC2)c(Cc2ccccc2)c1` [compound 44, (E)-1-(3-(2-benzyl-4-methylphenyl)allyl)-4-methylpiperazine], the EC50 lay in the range of 1 to 35 µM.
